In EP4635500A1, “THERAPEUTIC AGENT FOR BACTERIAL INFECTION” (Sumitomo Pharma Co., Ltd., priority 2022, dated 2024):
Values after ≈ are worked out from the molar mass of the structure shown. Like-named read-outs stand apart in the source and are kept apart here.

System: Enterobacterales
Test: MIC, broth microdilution, CDC/FDA Antibiotic Resistance Isolate Bank (Example 7, Tables 8, 11, 12)
Type: cell-based

For `C[C@@H](O)[C@H]1C(=O)N2C(C(=O)O)=C(S[C@@H]3CN[C@H](C(=O)N(C)C)C3)[C@H](C)[C@H]12` [MEPM, meropenem], the MIC (Klebsiella aerogenes, Enterobacter aerogenes, KUB No. 5777, AR Bank# 431, no carbapenemase genes, read-out: MIC) was no more than 0.06 µg/mL, the MIC (Klebsiella ornithinolytica) was 0.25 µg/mL (≈ 0.652 µM) and the MIC (Klebsiella oxytoca, KUB No. 5568, AR Bank # 71, no carbapenemase gene, read-out: MIC) was 8 µg/mL (≈ 20.9 µM). It also gave an MIC (Klebsiella oxytoca, KUB No. 5644, AR Bank# 147, KPC-3, read-out: MIC) of 0.25 µg/mL (≈ 0.652 µM), an MIC (Klebsiella oxytoca, KUB No. 5771, AR Bank# 375, no carbapenemase genes, read-out: MIC) of no more than 0.06 µg/mL and an MIC (Klebsiella oxytoca, KUB No. 5776, AR Bank# 380, no carbapenemase genes, read-out: MIC) of 2 µg/mL (≈ 5.22 µM). For the same compound, the MIC (Klebsiella ozaenae, KUB No. 5548, AR Bank # 51, OXA-181, read-out: MIC) was 1 µg/mL (≈ 2.61 µM), the MIC (Klebsiella ozaenae, KUB No. 5593, AR Bank # 96, KPC-3, read-out: MIC) was 32 µg/mL (≈ 83.4 µM) and the MIC (Klebsiella pnemnonice, KUB No. 5784, AR Bank# 438, KPC-3, read-out: MIC) was greater than 32 µg/mL. It also gave an MIC (Klebsiella pneumoniae, KUB No. 5531, AR Bank # 34, IMP-4, read-out: MIC) of 0.25 µg/mL (≈ 0.652 µM), an MIC (Klebsiella pneumoniae, KUB No. 5536, AR Bank # 39, OXA-181, read-out: MIC) of 1 µg/mL (≈ 2.61 µM) and an MIC (Klebsiella pneumoniae, KUB No. 5537, AR Bank # 40, VIM-27, read-out: MIC) greater than 32 µg/mL. For the same compound, the MIC (Klebsiella pneumoniae, KUB No. 5538, AR Bank # 41, NDM-1, read-out: MIC) was 8 µg/mL (≈ 20.9 µM), the MIC (Klebsiella pneumoniae, KUB No. 5540, AR Bank # 43, no carbapenemase gene, read-out: MIC) was 0.5 µg/mL (≈ 1.3 µM) and the MIC (Klebsiella pneumoniae, KUB No. 5541, AR Bank # 44, no carbapenemase gene, read-out: MIC) was 2 µg/mL (≈ 5.22 µM). For the same compound, the MIC (Klebsiella pneumoniae, KUB No. 5543, AR Bank # 46, VIM-27, read-out: MIC) was 32 µg/mL (≈ 83.4 µM), the MIC (Klebsiella pneumoniae, KUB No. 5544, AR Bank # 47, no carbapenemase gene, read-out: MIC) was 4 µg/mL (≈ 10.4 µM) and the MIC (Klebsiella pneumoniae, KUB No. 5546, AR Bank # 49, NDM-1, read-out: MIC) was 32 µg/mL (≈ 83.4 µM). It also gave an MIC (Klebsiella pneumoniae, KUB No. 5563, AR Bank # 66, OXA-232, read-out: MIC) of 8 µg/mL (≈ 20.9 µM), an MIC (Klebsiella pneumoniae, KUB No. 5565, AR Bank # 68, OXA-232, NDM-1, read-out: MIC) greater than 32 µg/mL and an MIC (Klebsiella pneumoniae, KUB No. 5573, AR Bank # 76, VIM-1, read-out: MIC) of 2 µg/mL (≈ 5.22 µM). It also gave an MIC (Klebsiella pneumoniae, KUB No. 5576, AR Bank # 79, no carbapenemase gene, read-out: MIC) of 4 µg/mL (≈ 10.4 µM), an MIC (Klebsiella pneumoniae, KUB No. 5577, AR Bank # 80, IMP-4, read-out: MIC) of 4 µg/mL (≈ 10.4 µM) and an MIC (Klebsiella pneumoniae, KUB No. 5584, AR Bank # 87, no carbapenemase gene, read-out: MIC) of no more than 0.06 µg/mL. It also gave an MIC (Klebsiella pneumoniae, KUB No. 5594, AR Bank # 97, KPC-3, read-out: MIC) of 32 µg/mL (≈ 83.4 µM), an MIC (Klebsiella pneumoniae, KUB No. 5595, AR Bank # 98, KPC-2, read-out: MIC) of 8 µg/mL (≈ 20.9 µM) and an MIC (Klebsiella pneumoniae, KUB No. 5603, AR Bank # 106, NDM-1, read-out: MIC) greater than 32 µg/mL. It also gave an MIC (Klebsiella pneumoniae, KUB No. 5604, AR Bank # 107, no carbapenemase gene, read-out: MIC) of 16 µg/mL (≈ 41.7 µM), an MIC (Klebsiella pneumoniae, KUB No. 5606, AR Bank # 109, no carbapenemase gene, read-out: MIC) of 8 µg/mL (≈ 20.9 µM) and an MIC (Klebsiella pneumoniae, KUB No. 5609, AR Bank # 112, KPC-3, read-out: MIC) of 4 µg/mL (≈ 10.4 µM). The MIC (Klebsiella pneumoniae, KUB No. 5610, AR Bank # 113, KPC-3, read-out: MIC) was greater than 32 µg/mL, the MIC (Klebsiella pneumoniae, KUB No. 5612, AR Bank # 115, KPC-3, read-out: MIC) was 8 µg/mL (≈ 20.9 µM) and the MIC (Klebsiella pneumoniae, KUB No. 5614, AR Bank # 117, KPC-3, read-out: MIC) was 16 µg/mL (≈ 41.7 µM). For the same compound, the MIC (Klebsiella pneumoniae, KUB No. 5617, AR Bank # 120, KPC-2, read-out: MIC) was 16 µg/mL (≈ 41.7 µM), the MIC (Klebsiella pneumoniae, KUB No. 5622, AR Bank # 125, KPC-3, read-out: MIC) was 16 µg/mL (≈ 41.7 µM) and the MIC (Klebsiella pneumoniae, KUB No. 5623, AR Bank # 126, KPC-2, read-out: MIC) was 4 µg/mL (≈ 10.4 µM). The MIC (Klebsiella pneumoniae, KUB No. 5626, AR Bank # 129, KPC-3, read-out: MIC) was 4 µg/mL (≈ 10.4 µM), the MIC (Klebsiella pneumoniae, KUB No. 5632, AR Bank# 135, VIM-1, read-out: MIC) was 0.5 µg/mL (≈ 1.3 µM) and the MIC (Klebsiella pneumoniae, KUB No. 5635, AR Bank# 138, NDM-7, read-out: MIC) was greater than 32 µg/mL. The MIC (Klebsiella pneumoniae, KUB No. 5636, AR Bank# 139, NDM-1, read-out: MIC) was 0.12 µg/mL (≈ 0.313 µM), the MIC (Klebsiella pneumoniae, KUB No. 5637, AR Bank# 140, OXA-181, read-out: MIC) was 1 µg/mL (≈ 2.61 µM) and the MIC (Klebsiella pneumoniae, KUB No. 5639, AR Bank# 142, OXA-181, read-out: MIC) was 1 µg/mL (≈ 2.61 µM). For the same compound, the MIC (Klebsiella pneumoniae, KUB No. 5640, AR Bank# 143, NDM-L, read-out: MIC) was greater than 32 µg/mL, the MIC (Klebsiella pneumoniae, KUB No. 5642, AR Bank# 145, NDM-1, read-out: MIC) was 8 µg/mL (≈ 20.9 µM) and the MIC (Klebsiella pneumoniae, KUB No. 5643, AR Bank# 146, NDM-1, read-out: MIC) was 8 µg/mL (≈ 20.9 µM). The MIC (Klebsiella pneumoniae, KUB No. 5645, AR Bank# 148, NDM-1, read-out: MIC) was 8 µg/mL (≈ 20.9 µM), the MIC (Klebsiella pneumoniae, KUB No. 5650, AR Bank# 153, OXA-232, NDM-1, read-out: MIC) was greater than 32 µg/mL and the MIC (Klebsiella pneumoniae, KUB No. 5655, AR Bank# 158, NDM-1, read-out: MIC) was 8 µg/mL (≈ 20.9 µM). It also gave an MIC (Klebsiella pneumoniae, KUB No. 5657, AR Bank# 160, OXA-48, read-out: MIC) of 8 µg/mL (≈ 20.9 µM), an MIC (Klebsiella pneumoniae, KUB No. 5757, AR Bank# 361, KPC-2, read-out: MIC) of 8 µg/mL (≈ 20.9 µM) and an MIC (Klebsiella pneumoniae, KUB No. 5758, AR Bank# 362, KPC-2, read-out: MIC) of 8 µg/mL (≈ 20.9 µM). It also gave an MIC (Klebsiella pneumoniae, KUB No. 5759, AR Bank# 363, KPC-2, read-out: MIC) of 4 µg/mL (≈ 10.4 µM), an MIC (Klebsiella pneumoniae, KUB No. 5760, AR Bank# 364, no carbapenemase genes, read-out: MIC) of 1 µg/mL (≈ 2.61 µM) and an MIC (Klebsiella pneumoniae, KUB No. 5772, AR Bank# 376, no carbapenemase genes, read-out: MIC) of 0.12 µg/mL (≈ 0.313 µM). For the same compound, the MIC (Klebsiella pneumoniae, KUB No. 5797, AR Bank# 453, KPC-3, read-out: MIC) was greater than 32 µg/mL, the MIC (Klebsiella pneumoniae, KUB No. 5809, AR Bank# 504, OXA-48, read-out: MIC) was 4 µg/mL (≈ 10.4 µM) and the MIC (Klebsiella pneumoniae, KUB No. 5810, AR Bank# 505, NDM-1, read-out: MIC) was 16 µg/mL (≈ 41.7 µM). It also gave an MIC (Klebsiella pneumoniae, KUB No. 5811, AR Bank# 506, NDM-1, read-out: MIC) of 16 µg/mL (≈ 41.7 µM), an MIC (Klebsiella pneumoniae, KUB No. 5812, AR Bank# 507, OXA-232, NDM-1, read-out: MIC) greater than 32 µg/mL and an MIC (Klebsiella pneumoniae, KUB No. 5827, AR Bank# 522, KPC-2, read-out: MIC) of 8 µg/mL (≈ 20.9 µM). For the same compound, the MIC (Klebsiella pneumoniae, KUB No. 5828, AR Bank# 523, KPC-2 (row continued in Table 8-7), read-out: MIC) was 16 µg/mL (≈ 41.7 µM), the MIC (Klebsiella pneumoniae, KUB No. 5829, AR Bank# 524, KPC-3, read-out: MIC) was 16 µg/mL (≈ 41.7 µM) and the MIC (Klebsiella pneumoniae, KUB No. 5830, AR Bank# 525, KPC-11, read-out: MIC) was 8 µg/mL (≈ 20.9 µM). The MIC (Klebsiella pneumonice, KUB No. 5649, AR Bank# 152, NDM-1, read-out: MIC) was 8 µg/mL (≈ 20.9 µM), the MIC (Kluyvera ascorbata) was 2 µg/mL (≈ 5.22 µM) and the MIC (Morganella morganii, KUB No. 5630, AR Bank# 133, KPC-2, read-out: MIC) was 1 µg/mL (≈ 2.61 µM). It also gave an MIC (Morganella morganii, KUB No. 5824, AR Bank# 519, no carbapenemase genes, read-out: MIC) of 2 µg/mL (≈ 5.22 µM), an MIC (Proteus mirabilis, KUB No. 5556, AR Bank # 59, no carbapenemase gene, read-out: MIC) of 0.12 µg/mL (≈ 0.313 µM) and an MIC (Proteus mirabilis, KUB No. 5652, AR Bank# 155, KPC-6, read-out: MIC) of 1 µg/mL (≈ 2.61 µM). The MIC (Proteus mirabilis, KUB No. 5653, AR Bank# 156, KPC-2, read-out: MIC) was 0.12 µg/mL (≈ 0.313 µM), the MIC (Proteus mirabilis, KUB No. 5656, AR Bank# 159, NDM-1, read-out: MIC) was 2 µg/mL (≈ 5.22 µM) and the MIC (Proteus mirabilis, KUB No. 5773, AR Bank# 377, KPC-3, read-out: MIC) was 1 µg/mL (≈ 2.61 µM). The MIC (Proteus mirabilis, KUB No. 5775, AR Bank# 379, no carbapenemase genes, read-out: MIC) was no more than 0.06 µg/mL, the MIC (Providencia rettgeri) was 8 µg/mL (≈ 20.9 µM) and the MIC (Salmonella enterica) was 16 µg/mL (≈ 41.7 µM). For the same compound, the MIC (Serratia marcescens, KUB No. 5588, AR Bank # 91, SME-3, read-out: MIC) was 16 µg/mL (≈ 41.7 µM), the MIC (Serratia marcescens, KUB No. 5596, AR Bank # 99, SME-3, read-out: MIC) was 16 µg/mL (≈ 41.7 µM) and the MIC (Serratia marcescens, KUB No. 5618, AR Bank # 121, SME-3, read-out: MIC) was 16 µg/mL (≈ 41.7 µM). The MIC (Serratia marcescens, KUB No. 5619, AR Bank # 122, SME-3, read-out: MIC) was 32 µg/mL (≈ 83.4 µM), the MIC (Serratia marcescens, KUB No. 5620, AR Bank # 123, SME-3, read-out: MIC) was 2 µg/mL (≈ 5.22 µM) and the MIC (Serratia marcescens, KUB No. 5621, AR Bank # 124, SME-3, read-out: MIC) was 32 µg/mL (≈ 83.4 µM). It also gave an MIC (Serratia marcescens, KUB No. 5627, AR Bank # 130, SME-3, read-out: MIC) of 8 µg/mL (≈ 20.9 µM), an MIC (Serratia marcescens, KUB No. 5628, AR Bank # 131, SME-3, read-out: MIC) of 0.5 µg/mL (≈ 1.3 µM) and an MIC (Serratia marcescens, KUB No. 5822, AR Bank# 517, KPC-3, read-out: MIC) of 8 µg/mL (≈ 20.9 µM). For the same compound, the MIC (Serratia marcescens, KUB No. 5825, AR Bank# 520, no carbapenemase genes, read-out: MIC) was no more than 0.06 µg/mL and the MIC (Serratia marcescens, KUB No. 5826, AR Bank# 521, no carbapenemase genes, read-out: MIC) was no more than 0.06 µg/mL.
